US5599808A, “Aqueous indolocarbazole solutions” (Cephalon, Inc., priority 1995, dated 1997)
Converted amounts (≈) assume the structure as drawn.

How the values were obtained:
[1] = cited from earlier work
protein kinase = settings: Berg et al. J. Biol. Chem. 267:13-16 (1992); cited from earlier work
[2] = Concentration of dissolved indolocarbazole obtained in aqueous solutions (HPLC); settings: organic solvent or mixture
Protocol: In general, a solution of the concentrate can be prepared by combining a dispersant such as polyvinylpyrrolidone C-30 and a selected organic solvent such as propylene glycol into a beaker. The mixture is continuously stirred until completely dissolved. Solid PVP or other solution components may take 1-2 hours to dissolve completely at room temperature.
An amount of an indolocarbazole, for example, staurosporine, K-252a, or any one of indolocarbazole A, B, or C (Table 1) can each be individually weighed and added to a small aliquot of the aqueous solution, resulting in a 10 mg/ml solution after the indolocarbazole completely dissolves. Alternatively, a mixture of indolocarbazoles may be combined, weighed, and added to a small aliquot of the aqueous solution resulting in a 10 mg/ml solution after the indolocarbazole completely dissolves. An indolocarbazole solution can be stirred or shaken vigorously overnight. Any undissolved indolocarbazole is removed by standard centrifugation or filtration techniques. The concentration of solubilized indolocarbazole can be determined by reversed phase HPLC using a UV detector (290 nm).
The following HPLC conditions are used to determine the concentration of an indolocarbazole:
HPLC Column: Zorbax Rx C-18 4.6×250 mm, 5 micron particle size
Prior to injection of an indolocarbazole solution, there is allowed a 10 minute equilibration time.
Fifty g of PEG-400 were added to 50 ml of water and the mixture vigorously stirred until completely dissolved. One mg of either K-252a, staurosporine or the indolocarbazoles B or C (see Table 1) were added individually to a 100 μl aliquot of the PEG-400 solution and the resulting mixture was shaken overnight. The solution was clarified by centrifugation at 1000 rpm for 10 minutes. The supernatant was saved and any residue discarded. Ten μl of the supernatant was removed, diluted with DMSO (100:1) and the concentration of dissolved K-252a determined by HPLC.
Same as example 1 except that PEG-600 was used instead of PEG-400.
Same as example 1 except that PEG-1000 was used instead of PEG-400.
Same as example 1 except that 48 ml of water was used and 2 g of benzyl alcohol was added to the PEG-400 solution.
Same as example 2 except that 48 ml of water was used and 2 g of benzyl alcohol was added to the PEG-600 solution.
Same as example 3 except that 48 ml of water was used and 2 g of benzyl alcohol was added to the PEG-1000 solution.
2.5 g of benzyl alcohol was added to 47.5 g of PEG-400 and, in a separate container, 2.5 g of Pluronic F68 was added to 47.5 ml of water. Each solution was stirred until completely dissolved, then each solution was combined and stirred until homogeneous. One mg of K-252a was added to 100 μl of the solution and the resulting mixture was shaken overnight. The solution was clarified by centrifugation at 1000 rpm for 10 minutes. Ten (10) μl of supernatant was removed, diluted with DMSO (100:1), and the concentration of dissolved K-252a determined by HPLC.
Same as example 7 except that Pluronic™ L61 was used instead of Pluronic™ F68.
Same as example 7 except that Pluronic™ L64 was used instead of Pluronic™ F68.
Same as example 7 except that Tween™ 20 was used instead of Pluronic™ F68.
Same as example 7 except that Tween™ 80 was used instead of Pluronic™ F68.
Same as example 7 except that PVP was used instead of Pluronic™ F68 and PEG-300 was used instead of PEG-400.
Same as example 12 except that PEG-400 was used instead of PEG-300 and indolocarbazoles A, B or C were each solubilized individually in addition to K-252a.
Same as example 12 except that PEG-600 was used instead of PEG-300 and indolocarbazoles A, B or C were each solubilized individually in addition to K-252
Same as example 12 except that PEG-1000 was used instead of PEG-300.
Ten (10) g of Triton X-100 was added to 38 ml of water and the mixture was stirred thoroughly.

In the case of `COC(=O)C1(O)CC2OC1(C)n1c3ccccc3c3c4c(c5c6ccccc6n2c5c31)C(=O)NC4` (centres unmarked) [Compound K-252a], the insolubility in water ([1]; Nakanishi et al.) is listed as “insolubility”, the “solubility in non-aqueous, toxic solvents” value ([1]; non-aqueous, toxic solvents) is listed as “soluble in non-aqueous, toxic solvents” and the solubility in water ([1]; water) is listed as “insoluble in water”. The “modulation of neurotrophin responses by affecting protein kinase activity” value (protein kinase) was “modulate neurotrophin responses”, the solubility thermodynamic ([2]; 50% peg 400, 50% h2o, Concentration Obtained, Example 1: 50% PEG 400, 50% H2O, target 10 mg/ml) was 1390 µg/mL (≈ 2.97 mM) and the solubility thermodynamic ([2]; 50% peg 600, 50% h2o, Concentration Obtained, Example 2: 50% PEG 600, 50% H2O, target 10 mg/ml) was 1920 µg/mL (≈ 4.11 mM). For the same molecule, the solubility thermodynamic ([2]; 50% peg 1000, 50% h2o, Concentration Obtained, Example 3: 50% PEG 1000, 50% H2O, target 10 mg/ml) was 1820 µg/mL (≈ 3.89 mM), the solubility thermodynamic ([2]; peg 300/ba/pvp/h2o, Concentration Obtained, Example 12: 47.5% PEG 300, 2.5% BA, 2.5% PVP, 47.5% H2O, target 10 mg/ml) was 9600 µg/mL (≈ 20.5 mM) and the solubility thermodynamic ([2]; peg 400/ba/h2o, Concentration Obtained, Example 4: 50% PEG 400, 2% BA, 48% H2O, target 10 mg/ml) was 2080 µg/mL (≈ 4.45 mM). It also gave a solubility thermodynamic ([2]; peg 400/ba/pluronic f68/h2o, Concentration Obtained, Example 7: 47.5% PEG 400, 2.5% BA, 2.5% Pluronic F68, 47.5% H2O, target 10 mg/ml) of 5500 µg/mL (≈ 11.8 mM), a solubility thermodynamic ([2]; peg 400/ba/pluronic l61/h2o, Concentration Obtained, Example 8: 47.5% PEG 400, 2.5% BA, 2.5% Pluronic L61, 47.5% H2O, target 10 mg/ml) of 3500 µg/mL (≈ 7.49 mM) and a solubility thermodynamic ([2]; peg 400/ba/pluronic l64/h2o, Concentration Obtained, Example 9: 47.5% PEG 400, 2.5% BA, 2.5% Pluronic L64, 47.5% H2O, target 10 mg/ml) of 1800 µg/mL (≈ 3.85 mM). For the same molecule, the solubility thermodynamic ([2]; peg 400/ba/pvp/h2o, Concentration Obtained, Example 13: 47.5% PEG 400, 2.5% BA, 2.5% PVP, 47.5% H2O, target 10 mg/ml) was 10000 µg/mL (≈ 21.4 mM), the solubility thermodynamic ([2]; peg 400/ba/tween 20/h2o, Concentration Obtained, Example 10: 47.5% PEG 400, 2.5% BA, 2.5% Tween 20, 47.5% H2O, target 10 mg/ml) was 6000 µg/mL (≈ 12.8 mM) and the solubility thermodynamic ([2]; peg 400/ba/tween 80/h2o, Concentration Obtained, Example 11: 47.5% PEG 400, 2.5% BA, 2.5% Tween 80, 47.5% H2O, target 10 mg/ml) was 3700 µg/mL (≈ 7.91 mM). It also gave a solubility thermodynamic ([2]; peg 600/ba/h2o, Concentration Obtained, Example 5: 50% PEG 600, 2% BA, 48% H2O, target 10 mg/ml) of 2720 µg/mL (≈ 5.82 mM), a solubility thermodynamic ([2]; peg 600/ba/pvp/h2o, Concentration Obtained (saturation level), Example 20: 47.5% PEG 600, 2.5% BA, 2.5% PVP, 47.5% H2O, 10 mg added) of 10000 µg/mL (≈ 21.4 mM) and a solubility thermodynamic ([2]; peg 600/ba/pvp/h2o, Concentration Obtained (saturation level), Example 22: 50% PEG 600, 2% BA, 10% PVP, 38% H2O, 10 mg added) of 21200 µg/mL (≈ 45.3 mM). For the same molecule, the solubility thermodynamic ([2]; peg 600/ba/pvp/h2o, Concentration Obtained, Example 14: 47.5% PEG 600, 2.5% BA, 2.5% PVP, 47.5% H2O, target 10 mg/ml) was 10000 µg/mL (≈ 21.4 mM), the solubility thermodynamic ([2]; peg 600/ba/pvp/h2o, Concentration Obtained, Example 18: 50% PEG 600, 2% BA, 10% PVP, 38% H2O, target 10 mg/ml) was 10000 µg/mL (≈ 21.4 mM) and the solubility thermodynamic ([2]; peg 600/ba/triton x-100/h2o, Concentration Obtained, Example 16: 50% PEG 600, 2% BA, 10% Triton X-100, 38% H2O, target 10 mg/ml) was 10000 µg/mL (≈ 21.4 mM). The solubility thermodynamic ([2]; peg 600/ba/tween 80/h2o, Concentration Obtained, Example 17: 50% PEG 600, 2% BA, 10% Tween 80, 38% H2O, target 10 mg/ml) was 8830 µg/mL (≈ 18.9 mM), the solubility thermodynamic ([2]; peg 1000/ba/h2o, Concentration Obtained, Example 6: 50% PEG 1000, 2% BA, 48% H2O, target 10 mg/ml) was 1830 µg/mL (≈ 3.91 mM) and the solubility thermodynamic ([2]; peg 1000/ba/pvp/h2o, Concentration Obtained (saturation level), Example 21: 47.5% PEG 1000, 2.5% BA, 2.5% PVP, 47.5% H2O, 10 mg added) was 14100 µg/mL (≈ 30.2 mM). For the same molecule, the solubility thermodynamic ([2]; peg 1000/ba/pvp/h2o, Concentration Obtained, Example 15: 47.5% PEG 1000, 2.5% BA, 2.5% PVP, 47.5% H2O, target 10 mg/ml) was 10000 µg/mL (≈ 21.4 mM) and the solubility thermodynamic ([2]; peg 1000/ba/pvp/h2o, Concentration Obtained, Example 19: 40% PEG 1000, 2% BA, 10% PVP, 48% H2O, target 10 mg/ml) was 10000 µg/mL (≈ 21.4 mM).
